Patent US20250320496A1, “MODULATION OF ABCB11 GENE TRANSCRIPTION USING ANTISENSE OLIGONUCLEOTIDES TARGETING REGULATORY RNAS” (CAMP4 Therapeutics Corporation, priority 2022, published 2025)
Strand notation (5' to 3'): a small letter for the sugar, then the base; units joined by * are phosphorothioate-linked, units joined directly phosphodiester-linked; [ ] holds rarer units or linkages, { } end groups; capitals alone tell only the bases. e = 2'-O-(2-methoxyethyl) (MOE); l = locked nucleic acid (LNA); [5mC] = 5-methylcytosine; d = 2'-deoxy (DNA)

Test system: human ABCB11 mRNA
Assay: ASO treatment of primary human hepatocytes (PHH), ABCB11 mRNA by RT-qPCR normalized to B2M
Assay type: cell-based
Parameters: ABCB11 mRNA, dose titration: unit of the concentration uncertain
Details: for ABCB11 FC mRNA (5 μM ASO vs. untreated) / ABCB11 mRNA FC (5 μM ASO vs. UNT): primary human hepatocytes; for ABCB11 FC mRNA (5 μM ASO vs. untreated): 5 μM ASO with PO-modifications, normalized to untreated hepatocytes; for ABCB11 mRNA FC (5 μM ASO vs. UNT): normalized to untreated PHHs (UNT); for upregulation of ABCB11 mRNA: Day 3, normalized to untreated PHHs
Method in brief: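 Plated primary human hepatocytes were treated 4 h post-thaw with ASO (e.g., 1.25–10 μM; initial screen 5 μM) in medium containing 0.3 mg/ml Matrigel for 72 hrs. Total RNA was reverse-transcribed and ABCB11 mRNA measured by Taqman RT-qPCR, normalized to B2M, with fold change versus untreated PHHs.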

Substance | ABCB11 mRNA FC (5 μM ASO vs. UNT) [fold change] | also measured
CO-11203 (antisense eT*eG*eT*eTeT*eT*eG*e[5mC]eT*eT*eG*eGeT*e[5mC]*eA*eAeG*eA*eG*eG) |  | ABCB11 FC mRNA (5 μM ASO vs. untreated): 1.38 fold change
CO-7003 (antisense eG*eT*eG*eA*eG*lG*e[5mC]*eA*eT*e[5mC]*lA*eG*eG*eT*eA*lA*eG*eT*eT*e[5mC]) | 1.066 | 
CO-7161 (antisense eG*eA*eT*eG*eT*eG*eG*eA*eG*eG*eT*eG*eG*eA*eG*e[5mC]*eA*eA*eA*e[5mC]) | 1.324 | 
CO-7095 (eA*e[5mC]*e[5mC]*l[5mC]*e[5mC]*e[5mC]*e[5mC]*lT*e[5mC]*eA*e[5mC]*l[5mC]*eT*eT*eG*lG*eT*eT*e[5mC]*e[5mC]; antisense) | 0.925 | 
CO-7024 (antisense eG*e[5mC]*eT*eT*eA*eT*e[5mC]*eT*eG*eG*eA*eA*eA*eA*eT*eA*eA*eT*eG*e[5mC]) | 1.415 | 
CO-7164 (antisense eA*eT*eT*e[5mC]*eT*eA*e[5mC]*eA*eG*eA*eG*eG*eG*eA*eG*e[5mC]*eA*eT*eA*eA) | 1.178 | 
CO-4044 (antisense eG*eT*eT*eG*eG*eG*eA*eT*eA*eG*e[5mC]*e[5mC]*eT*eG*eA*eA*eT*eT*e[5mC]*e[5mC]) | 0.974 | 
CO-3999 (antisense eG*eG*e[5mC]*eA*eA*e[5mC]*e[5mC]*eT*e[5mC]*eG*eT*e[5mC]*e[5mC]*e[5mC]*e[5mC]*eT*e[5mC]*eA*e[5mC]*eT) | 1.076 | 
CO-3984: ASO targeting the paRNA regRNA RR63 (antisense e[5mC]*eA*eT*eT*eT*eA*eG*eA*eG*eA*e[5mC]*eA*eA*eA*eG*eA*eA*eT*e[5mC]*eG) | 1.111 | upregulation of ABCB11 mRNA (PHHs): approximately 1.5 fold
CO-4500 (antisense eA*eG*eA*e[5mC]*eT*eT*eT*eG*eG*e[5mC]*e[5mC]*eA*eG*eG*e[5mC]*eA*eA*eG*eA*e[5mC]) | 1.109 | 
CO-11222 (antisense eG*eT*lG*eG*eAlGe[5mC]*eA*lA*eA*e[5mC]*lT*eA*eGlGe[5mC]*eA*l[5mC]*eT*eG) |  | ABCB11 FC mRNA (5 μM ASO vs. untreated): 1.79 fold change
CO-4499 (antisense eA*eA*eG*eG*eA*eA*eG*eG*eT*e[5mC]*eT*eA*eG*e[5mC]*eG*eG*eA*eG*eG*eT) | 1.202 | 
CO-4486 (antisense eG*eG*eA*e[5mC]*eT*eG*e[5mC]*eG*eT*eG*eA*e[5mC]*eT*e[5mC]*eA*eG*eG*eT*eT*eA) | 1.151 | 
CO-4060 (antisense eG*eG*eA*eGeT*eGeA*eGeA*eG*eG*e[5mC]*eA*eT*eT*eT*eA*eG*eG*eG) | 1.117 | 
CO-7110 (eT*eA*e[5mC]*eA*eT*eT*eT*dA*dG*dA*dG*dA*d[5mC]*dA*dA*dA*dG*eA*eA*eT*e[5mC]*eG*e[5mC]*eT; antisense) | 1.035 | 
CO-7096 (eA*e[5mC]*e[5mC]*e[5mC]*e[5mC]*l[5mC]*e[5mC]*eT*e[5mC]*eA*l[5mC]*e[5mC]*eT*eT*eG*lG*eT*eT*e[5mC]*e[5mC]; antisense) | 1.157 | 
CO-7208 (eT*eT*eT*eG*eG*e[5mC]*eG*eT*eT*eA*eT*eT*eA*eA*eT*eT*e[5mC]*eT*eA*e[5mC]*eA*eG*eA*eG; antisense) | 1.339 | 
CO-7098 (eA*eT*e[5mC]eT*eG*eG*dA*dA*dA*dA*dT*dA*dA*dT*dG*d[5mC]*e[5mC]*eT*eT*eT*e[5mC]*eT) | 1.04 | 
CO-11202: ASO containing PO-modifications identified in the Table 13 screen in PHHs (antisense eT*eG*eTeT*eT*eT*eG*e[5mC]eT*eT*eG*eG*eTe[5mC]*eA*eA*eG*eAeG*eG) |  | ABCB11 mRNA fold change (PHHs, 5 μM dose (FIG. 14)): ~2 fold; ABCB11 mRNA fold change (PHHs, 10 μM dose (FIG. 14)): ~3.5 fold; ABCB11 mRNA expression, dose response (PHHs, comparison study with OCA, elafibranor, fenofibrate (FIG. 14)): dose-dependent increase; ABCB11 FC mRNA (5 μM ASO vs. untreated): 1.50 fold change
CO-11224 (antisense eG*eT*lGeGeAlGe[5mC]*eA*lA*eA*e[5mC]*lT*eA*eGlGe[5mC]eAl[5mC]*eT*eG) |  | ABCB11 FC mRNA (5 μM ASO vs. untreated): 1.88 fold change
CO-6991 (antisense eT*eG*eG*eA*lT*eG*eT*eA*lG*eA*eT*eG*lA*eA*eT*eG*lG*e[5mC]*eA*eA) | 1.193 | 
CO-4518 (antisense e[5mC]*eT*eA*e[5mC]*eT*eA*eG*eT*eT*eG*eT*eT*eA*e[5mC]*eA*e[5mC]*e[5mC]*eT*eT*eA) | 0.981 | 
CO-7111 (TACATTTAGAGACAAAGAATCGCT; fully MOE, PS/PO backbone, 5-methylcytosine; listed as RNA; modified_base 1..24: mod_base = OTHER; note = Phosphorothioate linkage; note = 2'-O-(2-methoxyethyl) ribonucleotide; modified_base 3: mod_base = OTHER; note = 5-methyl cytidine; modified_base 13: mod_base) | 1.027 | 

Substance | ABCB11 mRNA FC (5 μM ASO vs. UNT) [fold change] | also measured
CO-7199 (eA*eG*eG*eT*eG*eG*eA*dG*d[5mC]*dA*dA*dA*d[5mC]*dT*dA*dG*dG*e[5mC]*eA*e[5mC]*eT*eG*eA*eG; antisense) | 1.166 | 
CO-6674 (antisense eT*eG*eG*eA*eA*eG*eG*eA*e[5mC]*eA*e[5mC]*eA*eA*eT*eT*eT*e[5mC]*eT*eG*eT) | 1.175 | 
CO-4527 (antisense eG*eA*eG*e[5mC]*eA*eT*e[5mC]*eA*eG*eG*eT*eA*e[5mC]*e[5mC]*eA*eT*eG*eA*e[5mC]*eA) | 0.97 | 
CO-4032 (antisense eA*eG*eT*e[5mC]*e[5mC]*eA*eT*eT*eA*eT*eT*eT*e[5mC]*e[5mC]*eT*e[5mC]*eT*eG*eG*e[5mC]) | 1.311 | 
CO-4496 (antisense eG*eT*eA*e[5mC]*eT*eA*eG*eA*e[5mC]*eT*e[5mC]*eT*eG*e[5mC]*e[5mC]*eT*eG*eT*eG*eT) | 0.984 | 
CO-4031 (antisense eG*eG*e[5mC]*eT*eT*e[5mC]*e[5mC]*eT*e[5mC]*eA*eA*eA*eT*eT*e[5mC]*eA*eT*eA*eT*eT) | 1.427 | 
CO-7000 (antisense eG*eT*lG*eA*eG*lG*e[5mC]*eA*lT*e[5mC]*eA*lG*eG*eT*lA*eA*eG*lT*eT*e[5mC]) | 1.203 | 
CO-7007 (antisense eG*eT*eG*eG*eA*dT*dG*dT*eA*dG*dA*dT*dG*eA*dA*dT*dG*eG*e[5mC]*eA*eA*eG) | 0.963 | 
CO-4014 (antisense eG*eA*eT*e[5mC]*eA*e[5mC]*eA*eA*eA*eT*eT*e[5mC]*eT*eA*e[5mC]*e[5mC]*e[5mC]*eT*eT*eG) | 1.003 | 
CO-4054 (antisense e[5mC]*eG*eT*eT*e[5mC]*eA*eT*e[5mC]*eT*eT*eT*eG*e[5mC]*eT*eT*eA*eT*eA*e[5mC]*eA) | 1.269 | 
CO-3998: ASO targeting the paRNA regRNA RR63 (antisense eA*e[5mC]*e[5mC]*e[5mC]*e[5mC]*e[5mC]*e[5mC]*eT*e[5mC]*eA*e[5mC]*e[5mC]*eT*eT*eG*eGeT*eT*e[5mC]*e[5mC]) | 1.319 | upregulation of ABCB11 mRNA (PHHs): approximately 1.5 fold
CO-12753 (antisense eG*eTeG*eA*eGeG*e[5mC]*eAeT*e[5mC]*eAeG*eG*eTeA*eA*eGeT*eT*e[5mC]) |  | ABCB11 FC mRNA (5 μM ASO vs. untreated): 1.03 fold change
CO-4019 (antisense eA*eG*eA*eG*eT*eG*eG*eT*eG*eT*eA*e[5mC]*eA*eT*eG*eG*eG*eT*eG*eT) | 1.028 | 
CO-6976 (antisense eT*e[5mC]*e[5mC]*eT*eG*eA*eA*eG*eT*eG*eG*eA*eG*eG*eT*eG*eG*eT*eG*eG) | 1.373 | 
CO-4529: ASO targeting eRNA RR64 of human ABCB11 (antisense eG*eT*eG*eG*eA*eG*e[5mC]*eA*eA*eA*e[5mC]*eT*eA*eG*eG*e[5mC]eA*e[5mC]*eT*eG) | 1.05 | ABCB11 mRNA, dose titration (PHHs, CO-3986 and CO-4529 tested at 2.5 (unit uncertain), 5 μM, and 10 μM): dose-dependent increase
CO-7159 (antisense eG*eG*eA*eG*eG*eT*eG*eG*eA*eG*e[5mC]*eA*eA*eA*e[5mC]*eT*eA*eG*eG*e[5mC]) | 1.326 | 
CO-4487 (antisense eG*e[5mC]*eA*eA*eG*eG*eT*e[5mC]*e[5mC]*eA*eG*eG*eG*eT*eG*eT*eA*eT*eT*e[5mC]) | 1.052 | 
CO-7106 (eA*e[5mC]*eA*eT*eT*eT*dA*dG*dA*dG*dA*d[5mC]*dA*dA*dA*dG*eA*eA*eT*e[5mC]*eG*e[5mC]; antisense) | 1.246 | 
CO-4481 (antisense e[5mC]*eA*eT*e[5mC]*eT*e[5mC]*eT*eG*eT*eG*eA*eA*eT*e[5mC]*eG*e[5mC]*eT*eA*eG*eT) | 1.18 | 
CO-4016 (antisense eT*eT*eT*eT*eA*eA*e[5mC]*eT*eT*eG*eG*e[5mC]*eT*eT*eT*eG*eT*eG*eA*eA) | 1.294 | 
CO-4021 (antisense eG*eT*e[5mC]*eT*eT*e[5mC]*eT*eT*eT*eA*eT*eA*eG*e[5mC]*eA*eA*eT*eG*e[5mC]*eT) | 1.301 | 
CO-6986 (antisense eT*eG*eG*lA*eT*dG*dT*lA*dG*dA*dT*lG*dA*dA*dT*lG*eG*e[5mC]*eA*eA) | 0.998 | 
